# Results as given in patent US11912693B2, “Compounds for modulating S1P1 activity and methods of using the same” (TREVENA, INC., priority 2017, dated 2024).
# Assays:
# [1] = target: T1, human sphingosine-1-phosphate receptor 1 (S1P1) (Homo sapiens (Human), UniProt P21453); assay: Inhibition of cAMP production (HTRF cAMP HiRange), S1P1 CHO-K1 cells; format: cell-based; settings: for Emax: CHO-K1, efficacy (SPAN) normalized to fingolimod, read-out: hS1P1 cAMP SPAN; for hS1P1 cAMP pEC50: inhibition of cAMP production, S1P1 CHO-K1 cells
# Method in brief: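 CHO-K1 cells stably co-expressing human S1P1 (C-terminal Prolink tag) and EA-β-arrestin2 were grown in AssayComplete Media 6 at 37° C. and 5% CO2, plated, and incubated overnight. Agonist-driven inhibition of intracellular cAMP was read by TR-FRET with the HTRF cAMP HiRange kit on a PheraStar reader. Potency is pEC50, and efficacy (SPAN) is normalized to fingolimod.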
# Target sequence in this assay (P21453 whole entry, looked up): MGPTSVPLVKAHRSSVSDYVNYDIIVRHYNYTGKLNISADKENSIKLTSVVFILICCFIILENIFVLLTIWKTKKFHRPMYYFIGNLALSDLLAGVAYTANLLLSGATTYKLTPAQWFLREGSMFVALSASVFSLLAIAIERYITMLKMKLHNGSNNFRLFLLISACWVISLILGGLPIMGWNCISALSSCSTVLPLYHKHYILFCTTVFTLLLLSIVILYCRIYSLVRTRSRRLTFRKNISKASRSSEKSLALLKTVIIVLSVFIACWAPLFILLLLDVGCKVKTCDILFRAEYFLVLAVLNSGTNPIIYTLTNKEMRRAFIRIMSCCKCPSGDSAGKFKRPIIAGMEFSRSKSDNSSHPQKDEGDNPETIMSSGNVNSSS
# [2] = target: T1, human sphingosine-1-phosphate receptor 1 (S1P1); assay: β-Arrestin2 recruitment assay (PathHunter), S1P1 CHO-K1 cells; format: cell-based; settings: for Emax: CHO-K1, efficacy (SPAN) normalized to fingolimod, read-out: hS1P1 B-arrestin2 SPAN; for hS1P1 B-arrestin2 pEC50: β-arrestin2 recruitment, S1P1 CHO-K1 cells
# Method in brief: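 Enzyme-fragment complementation read-out: agonist-driven β-arrestin2 binding to ProLink-tagged human S1P1 in stable CHO-K1 cells restores β-galactosidase, measured 1 h at room temperature after a 60 min 37° C. compound incubation. Potency as pEC50, efficacy relative to fingolimod (SPAN).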
# Target sequence in this assay (P21453 whole entry, looked up): as above
# Target sequence in this assay (P32121 whole entry partner, looked up): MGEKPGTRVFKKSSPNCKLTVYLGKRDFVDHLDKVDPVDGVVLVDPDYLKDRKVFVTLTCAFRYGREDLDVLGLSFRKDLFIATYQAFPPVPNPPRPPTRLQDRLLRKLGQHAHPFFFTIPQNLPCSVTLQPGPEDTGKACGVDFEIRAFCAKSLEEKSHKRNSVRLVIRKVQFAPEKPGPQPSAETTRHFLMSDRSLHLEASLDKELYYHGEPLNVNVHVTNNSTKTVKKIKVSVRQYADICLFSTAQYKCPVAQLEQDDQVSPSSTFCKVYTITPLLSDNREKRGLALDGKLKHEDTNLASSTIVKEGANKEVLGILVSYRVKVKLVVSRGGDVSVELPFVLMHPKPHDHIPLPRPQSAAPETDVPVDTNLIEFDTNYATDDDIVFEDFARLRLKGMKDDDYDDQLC
SMILES,Emax [1] [%],hS1P1 cAMP pEC50 [1],Emax [2] [%],hS1P1 B-arrestin2 pEC50 [2]
"CC(C)(O)Cn1nnc2cc(-c3nc(-c4ccc5nc[nH]c5c4)no3)ccc21 [Compound 501, 1-{5-[3-(1H-1,3-benzodiazol-6-yl)-1,2,4-oxadiazol-5-yl]-1H-1,2,3-benzotriazol-1-yl}-2-methylpropan-2-ol]",< 75,<6.5,> 75,<5
"CC(C)n1nnc2cc(-c3nc4ccncc4o3)ccc21 [Compound 503, 2-(1-isopropyl-1H-benzo[d][1,2,3]triazol-5-yl)oxazolo[5,4-c]pyridine]",> 75,<6.5,> 75,<5
"CC(C)Oc1ccc(-c2ccc(-c3ccc4c(c3)nnn4C(C)C)cc2)cc1C#N [Compound 506, 4-isopropoxy-4′-(1-isopropyl-1H-benzo[d][1,2,3]triazol-5-yl)-[1,1′-biphenyl]-3-carbonitrile]",< 75,>6.5,< 75,>5
"CC(C)Nc1ccc(-c2ccc(-c3ccc4c(c3)nnn4C(C)C)cc2)cc1C#N [Compound 507, 4′-(1-isopropyl-1H-benzo[d][1,2,3]triazol-5-yl)-4-(isopropylamino)-[1,1′-biphenyl]-3-carbonitrile]",< 75,>6.5,< 75,<5
"C=CCNc1ccc(-c2ccc(-c3ccc4c(c3)nnn4C(C)C)cc2)cc1C#N [Compound 508, 4-(allylamino)-4′-(1-isopropyl-1H-benzo[d][1,2,3]triazol-5-yl)-[1,1′-biphenyl]-3-carbonitrile]",> 75,<6.5,< 75,<5
"CCC1(CC)CC(=O)c2cc(-c3ncc(-c4cccnc4)cn3)ccc2O1 [Compound 509, 2,2-diethyl-6-(5-(pyridin-3-yl)pyrimidin-2-yl)chroman-4-one]",–,<6.5,–,<5
"CC(C)n1nnc2cc(-c3nc(-c4ccc5nc[nH]c5c4)no3)ccc21 [Compound 511, 5-[3-(1H-1,3-benzodiazol-6-yl)-1,2,4-oxadiazol-5-yl]-1-(propan-2-yl)-1H-1,2,3-benzotriazole]",< 75,>6.5,> 75,>5
"COc1cccc2nc(-c3ccc4c(c3)nnn4C(C)C)oc12 [Compound 515, 2-(1-isopropyl-1H-benzo[d][1,2,3]triazol-5-yl)-7-methoxybenzo[d]oxazole]",> 75,>6.5,> 75,>5
"Cc1ccccc1-c1c[nH]c(-c2ccc3c(c2)nnn3C(C)C)c1 [Compound 516, 5-[4-(2-methylphenyl)-1H-pyrrol-2-yl]-1-(propan-2-yl)-1H-1,2,3-benzotriazole]",< 75,<6.5,< 75,>5

# More lines, now with the values ahead:
Emax [1] [%],hS1P1 cAMP pEC50 [1],Emax [2] [%],hS1P1 B-arrestin2 pEC50 [2],SMILES
> 75,<6.5,< 75,<5,"CC(C)Cn1nnc2cc(-c3nc4ccncc4o3)ccc21 [Compound 504, 2-(1-isobutyl-1H-benzo[d][1,2,3]triazol-5-yl)oxazolo[5,4-c]pyridine]"
–,<6.5,–,<5,"Cc1ccccc1-c1nc(-c2ccc3c(c2)nnn3CC(C)(C)CO)no1 [Compound 505, 2,2-dimethyl-3-(5-(5-(o-tolyl)-1,2,4-oxadiazol-3-yl)-1H-benzo[d][1,2,3]triazol-1-yl)propan-1-ol]"
–,>6.5,–,>5,"CCC1(CC)CC(=O)c2cc(-c3ncc(-c4ccncc4)cn3)ccc2O1 [Compound 510, 2,2-diethyl-6-(5-(pyridin-4-yl)pyrimidin-2-yl)chroman-4-one]"
–,>6.5,–,>5,"CCC1(CC)CC(=O)c2cc(-c3nc(-c4ccnc(NC(C)=O)c4)no3)ccc2O1 [Compound 512, N-(4-(5-(2,2-diethyl-4-oxochroman-6-yl)-1,2,4-oxadiazol-3-yl)pyridin-2-yl)acetamide]"
